Assay results published in patent US8598132B2, “Glycosylated indolocarbazoles, method for obtaining same and uses thereof” (Universidad de Oviedo, priority 2008, dated 2013).

Biological target: T1, FLT3 (Homo sapiens, UniProt P36888)
T1 construct: purchased Upstate
T1 sequence (P36888 27-993): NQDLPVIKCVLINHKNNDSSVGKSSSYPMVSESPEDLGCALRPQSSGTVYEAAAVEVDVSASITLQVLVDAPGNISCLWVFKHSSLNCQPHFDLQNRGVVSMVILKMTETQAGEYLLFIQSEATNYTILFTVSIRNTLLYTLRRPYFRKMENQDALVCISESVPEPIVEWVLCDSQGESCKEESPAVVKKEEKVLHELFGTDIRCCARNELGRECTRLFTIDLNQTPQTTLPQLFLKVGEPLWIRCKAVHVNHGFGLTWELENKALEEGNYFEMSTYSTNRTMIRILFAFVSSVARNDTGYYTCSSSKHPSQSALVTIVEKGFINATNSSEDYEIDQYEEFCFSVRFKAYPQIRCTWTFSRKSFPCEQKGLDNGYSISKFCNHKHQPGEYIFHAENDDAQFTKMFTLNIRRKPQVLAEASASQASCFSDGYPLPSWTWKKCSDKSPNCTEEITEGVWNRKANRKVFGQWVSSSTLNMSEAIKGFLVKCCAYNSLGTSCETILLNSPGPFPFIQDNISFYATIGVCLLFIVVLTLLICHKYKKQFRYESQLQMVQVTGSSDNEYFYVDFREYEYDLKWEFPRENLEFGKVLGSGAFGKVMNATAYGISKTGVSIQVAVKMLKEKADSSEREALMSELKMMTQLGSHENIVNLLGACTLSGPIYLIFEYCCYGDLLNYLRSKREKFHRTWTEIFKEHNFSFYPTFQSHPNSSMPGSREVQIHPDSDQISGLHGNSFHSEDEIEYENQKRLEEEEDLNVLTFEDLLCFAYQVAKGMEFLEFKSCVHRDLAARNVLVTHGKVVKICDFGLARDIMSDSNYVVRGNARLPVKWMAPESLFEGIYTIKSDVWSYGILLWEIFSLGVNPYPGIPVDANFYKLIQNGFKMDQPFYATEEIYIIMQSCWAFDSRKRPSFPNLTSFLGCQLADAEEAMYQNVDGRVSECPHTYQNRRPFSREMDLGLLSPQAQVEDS
Assay: LabChip (Caliper) kinase assay, FLT3
Assay type: biochemical
Settings: for inhibition at 0.01 µM / inhibition at 0.1 µM: FLT3, read-out: remaining kinase activity (in %) / percentage of inhibition; for inhibition at 0.01 µM: compound at 10 nM; for inhibition at 0.1 µM: compound at 100 nM; for IC50: Ftl3, ATP at Km, read-out: CI50 (the source's name)
Procedure: The analysis of kinase activity described here was performed using LabChip (Caliper Life Sciences), specifically the Caliper LC3000 and the EZ Reader II instruments.
The kinase assay used measures the conversion of a fluorescent peptide (substrate) to a phosphorylated product. The reaction mixture, in a microplate well, is introduced by a capillary in a chip where the non-phosphorylated substrate and the phosphorylated product are separated by […]. The intensity of the fluorescent signal over time is related to the reaction progress. The phosphorylated product migrates quicker than the non-phosphorylated substrate and the signals of the two forms of the peptide appear as differentiated peaks. The Caliper determines the peak height and calculates the ratio of product to the peak sum (P/(P+S)). This value is used to compare wells with compounds and wells with controls and thus determine the % of inhibition for the given product.
The followings kinases were used for the enzymatic inhibition studies, between brackets the value of the Michaelis-Menten constant, Km, of the ATP (Adenosine triphosphate) for each kinase, in μM: obtained from Carna Biosciences: MAPKAPK2 (4.6), AurA (3.6), AurB (5), PKCζ (3.8), RSK1 (23.3), PRAK (5), Erk1 (33.4), PKD2 (32.1), CK1d (16.3), CHK1 (33), ABL (61.7), FYN (36), LYNa (17), CHK2 (57.8), MET (79.5), LCK (28.5), SRC (38), GSK3β (7.3), Erk2 (62.1), PKACα (1.7), AKT2 (186.1), INSR (871.8), p38a (396.5), AKT1(48), MSK1 (21.2), PKCβ2 (84.8), ROCK2 (3.3), PIM2 (4.9), AMPK (38.6), KDR (164.8), IRAK4 (196.5), SGK1 (121.8), SYK (33.5); obtained from Invitrogen: CDK2 (57.6), BTK (123), HGK (80); obtained from Upstate: MST2 (36.6), PKGα (16), PAK2 (1.9), IGF1R (320), FGFR1 (171), MARK1 (33), CAMK2δ (22.4), c-TAK1 (66), DYRK1a (18.1), CaMK4 (3.9), FLT3 (350), c-Raf (6.2), P70S6K (95).
The compounds were dissolved in 100% DMSO and were diluted at 25 times the final concentration desired for the assay. In the case of the determination of Cl50, serial dilutions were made to reach eight concentrations and give rise to the inhibition curve. 1 μL of each concentration is transferred, in duplicate to a 384-well microplate. 12 μL of enzymatic buffer is added to each well containing purified kinase (several suppliers as indicated above), 100 mM HEPES, pH 7.5, 1 mM DTT (Calbiochem), 0.002% Brij-35 (Sigma) and also in presence of 10 mM MgCl2 as cofactor, except for INSR and IRAK4 wherein 10 mM MnCl2 is used instead of MgCl2. For the kinases CAMK26 and CAMK4, 1 mM CaCl2 and 6.7 μg/mL of calmodulin are also added. For KDR kinase, 0.05% of the CHAPSO detergent is added. For the c-Raf kinase, 10 mM MnCl2 is added. For PKCβ2 0.02 μg/mL of PS/PMA is added. For PKGα se 10 μM of cGMP (cyclic guanosine monophosphate) is added. The compound and the enzyme are left for 15 minutes preincubation and, then, the following are added to each well: 12 μL of peptide buffer/ATP containing 100 mM HEPES, pH 7.5, 1.5 μM peptide marker with fluorescein (specific for the corresponding kinase), ATP (at concentration KM), and 0.002% Brij-35 to start the reaction. Generally, the reactions are incubated for 1-1.5 h at ambient temperature to obtain an adequate conversion (15-40%) of the peptide to the phosphorylated product. The reactions were ended by the addition of 45 μL of buffer containing 0 mM EDTA. The microplates were read by the LabChip 3000 using a 12-channel LabChip. The P/(P+S) values were obtained as described above and the CI50 curves were generated using XIfit.
Table 9a has the 0150 data obtained in pairs of compound-kinase selected from the compounds of formula (VII), (VIII), (IX), (XVI), (XVII) and (XVIII) after taking inhibition measurements at 100 nM and 10 nM. Those couples that provide >70% of inhibition at 10 nM were consider for measuring its IC50. […]

| Structure (SMILES) | inhibition at 0.01 µM | inhibition at 0.1 µM | IC50 |
| --- | --- | --- | --- |
| C[C@@H]1O[C@@H](n2c3ccccc3c3c4c(c5c6ccccc6[nH]c5c32)C(=O)NC4=O)C[C@H](O)[C@H]1O [formula (IV), N^13-1′-β-L-olivosylarcyriaflavin] | 20% | 81% |  |
| C[C@]12O[C@H](C[C@H](O)[C@H]1O)n1c3ccccc3c3c4c(c5c6ccccc6n2c5c31)C(=O)NC4=O [formula (VIII), N^12-5′(S)-N^13-1′-(R)-L-olivosylarcyriaflavin] |  |  | 560 pM |
| C[C@H]1O[C@@H](n2c3ccccc3c3c4c(c5c6ccccc6[nH]c5c32)CNC4=O)C[C@@H](O)[C@@H]1O [formula (XV), N^13-1′-β-D-olivosyl-k252c] | 76% | 106% |  |
| C[C@]12O[C@H](C[C@H](O)[C@H]1O)n1c3ccccc3c3c4c(c5c6ccccc6n2c5c31)CNC4=O [formula (XVII), N^12-5′(S)-N^13-1′-(R)-L-olivosyl-k252c] |  |  | 540 pM |
| C[C@@H]1O[C@@H](n2c3ccccc3c3c4c(c5c6ccccc6[nH]c5c32)CNC4=O)[C@H](O)[C@H](O)[C@H]1O [formula (XII), N^13-1′-β-L-rhamnosyl-k252c] | -7% | 35% |  |
| C[C@@H]1O[C@@H](n2c3ccccc3c3c4c(c5c6ccccc6[nH]c5c32)CNC4=O)C[C@@H](O)[C@H]1O [formula (XIV), N^13-1′-β-L-digitoxosyl-k252c] | 20% | 79% |  |
| C[C@]12O[C@H](C[C@@H](O)[C@H]1O)n1c3ccccc3c3c4c(c5c6ccccc6n2c5c31)C(=O)NC4=O [formula (IX), N^12-5′(S)-N^13-1′-(R)-L-digitoxosylarcyriaflavin] |  |  | 430 pM |
| C[C@@H]1O[C@@H](n2c3ccccc3c3c4c(c5c6ccccc6[nH]c5c32)CNC4=O)C[C@H](O)[C@H]1O [formula (XIII), N^13-1′-β-L-olivosyl-k252c] | 34% | 89% |  |
| C[C@]12O[C@H]([C@H](O)[C@H](O)[C@H]1O)n1c3ccccc3c3c4c(c5c6ccccc6n2c5c31)C(=O)NC4=O [formula (VII), N^12-5′(S)-N^13-1′-(R)-L-rhamnosylarcyriaflavin] |  |  | 570 pM |
| C[C@]12O[C@H]([C@H](O)[C@H](O)[C@H]1O)n1c3ccccc3c3c4c(c5c6ccccc6n2c5c31)CNC4=O [formula (XVI), N^12-5′(S)-N^13-1′-(R)-L-rhamnosyl-k252c] |  |  | 590 pM |
| C[C@@H]1O[C@@H](n2c3ccccc3c3c4c(c5c6ccccc6[nH]c5c32)C(=O)NC4=O)C[C@@H](O)[C@H]1O [formula (V), N^13-1′-β-L-digitoxosylarcyriaflavin] | 63% | 95% |  |
| C[C@@H]1O[C@@H](n2c3ccccc3c3c4c(c5c6ccccc6[nH]c5c32)C(=O)NC4=O)[C@H](O)[C@H](O)[C@H]1O [formula (III), N^13-1′-β-L-rhamnosylarcyriaflavin] | -10% | 25% |  |
| C[C@H]1O[C@@H](n2c3ccccc3c3c4c(c5c6ccccc6[nH]c5c32)C(=O)NC4=O)C[C@@H](O)[C@@H]1O [formula (VI), N^13-1′-β-D-olivosylarcyriaflavin] | 51% | 98% |  |
